Earlier results on one molecule are cited in patent US6197982A, “Vitamin D analogues” (priority 1996, dated 2001).

Molecules are shown by their SMILES.

One series deals with receptor. Particulars: relative to 1,25(OH)2 D3; cited from earlier work.
A further series deals with HL-60 cancer cells. Particulars: relative to 1,25(OH)2 D3; cited from earlier work.

With `C=C1/C(=C\C=C2/CCC[C@]3(C)[C@@H]([C@H](C)[C@H](CCC(C)(C)O)OC)CC[C@@H]23)C[C@@H](O)C[C@@H]1O` [22S-methoxy-1,25(OH)2 D3], in the series with receptor, the “receptor binding affinity, times that of 1,25(OH)2 D3” value is 0.03 times. For the same molecule, the “potency in inducing differentiation of HL-60 cancer cells, times that of 1,25(OH)2 D3” value in the series with HL-60 cancer cells is reported as 0.25 times.
